For one experiment, the system named is HepG2 cells. In words: DGAT inhibitory effect in HepG2 cells (triglyceride production from [14C]glycerol). It counts as cell-based. Particulars: Homo sapiens; for activity at 10 µM: HepG2, 6 h, DMSO control = 100, read-out: Triglyceride production rate (%)/HepG2 cells at 10 μM; for inhibition at 10 µM: HepG2, 10 μM, read-out: biosynthesis inhibition rate of triglyceride. As for the experimental part:
To investigate inhibition effect on intracellular DGAT enzyme activity of the compounds obtained in Examples 1-51, intracellular DGAT enzyme activity was measured using human-derived liver HepG2 cells.
HepG2 cells were purchased from ATCC, and cultured in 37° C., 5% CO2 incubator including minimum essential medium (2 mM L-glutamine, earle's BSS adjusted to contain 1.5 g/L sodium bicarbonate, 0.1 mM nonessential amino acids, and 1 mM sodium pyruvate) added with 10% fetal bovine serum (FBS) and 1% antibiotic (100 U/ml penicillin and 100 µg/ml streptomycin).
The intracellular DGAT enzyme activity was measured based on an amount of triglycerides produced in the cultured HepG2 cells, by adding 10 μM enzyme inhibitor compounds obtained in Examples 1-51, respectively, and then determining the effect of the enzyme inhibitors according to reduction rate of the triglyceride production.
Specifically, cells were seeded 1×10^6 cell/ml per well of the 24 well culture plate, and 24 hours after incubation, medium was exchanged with FBS-free DMEM medium, and sample of 0.2 mCi [^14C]glycerol (Amersham) was added as substrate, and the reaction was allowed to occur for 6 hr. The induced production of triglyceride was catalyzed by the DGAT enzyme, and DGAT enzyme activity was determined based on the amount of production of triglyceride which was measured based on the amount of radiation. The sample was dissolved in dimethylsulfoxide (DMSO) to be used, and the control group in the triglyceride production reaction was reacted with dimethylsulfoxide only (i.e., without sample), and the amount of the triglyceride production rate was set to 100.
After the reaction completed, the substrate [^14C]glycerol which was either not absorbed into cells or not used for the reaction, were removed with phosphate-buffer-saline (PBS), and 0.5 ml extraction solvent (hexane:isopropanol=3:2, v:v) was added to extract full fat containing triglycerides. With 0.5 ml extraction solvent, extract was obtained two times for 30 min each, and 1 ml of the extract was concentrated with nitrogen gas. After removing the extraction solvent, the total fat was dissolved in organic solvent (chloroform:methanol=2:1) and spotted with thin-layer chromatography (TLC:silica gel 60F254, thickness: 0.5 mm, Merck) on the developing solvent (hexane:diethyl ether:acetic acid=80:20:1, v: v: v). Triglycerides (Rf value: 0.4) were isolated on TLC, and after exposing the TLC plate to the film with photosensitivity to radiation energy (imaging plate' Fujifilm, BMS-MS 2040) for 3 hr, the amount of [^14C] radiation of triglyceride was measured by imaging analysis (FLA 7000). The remaining cells after the extraction were dissolved in 0.3 ml 0.1 N sodium hydroxide for use in the measurement of protein concentration of the cells used for the reaction.
The experimental errors among the respective experimental groups were compensated with the experimental value which was obtained by dividing the measured radiation of triglyceride by protein concentration, and the production rate of triglyceride according to the respective compounds of Examples 1-51 are tabulated below.

The target of a further experiment is T1, human DGAT1 (Homo sapiens, UniProt O75907).
T1 construct: made in house; host or cells: sf9 insect cells
T1 sequence (O75907 1-488): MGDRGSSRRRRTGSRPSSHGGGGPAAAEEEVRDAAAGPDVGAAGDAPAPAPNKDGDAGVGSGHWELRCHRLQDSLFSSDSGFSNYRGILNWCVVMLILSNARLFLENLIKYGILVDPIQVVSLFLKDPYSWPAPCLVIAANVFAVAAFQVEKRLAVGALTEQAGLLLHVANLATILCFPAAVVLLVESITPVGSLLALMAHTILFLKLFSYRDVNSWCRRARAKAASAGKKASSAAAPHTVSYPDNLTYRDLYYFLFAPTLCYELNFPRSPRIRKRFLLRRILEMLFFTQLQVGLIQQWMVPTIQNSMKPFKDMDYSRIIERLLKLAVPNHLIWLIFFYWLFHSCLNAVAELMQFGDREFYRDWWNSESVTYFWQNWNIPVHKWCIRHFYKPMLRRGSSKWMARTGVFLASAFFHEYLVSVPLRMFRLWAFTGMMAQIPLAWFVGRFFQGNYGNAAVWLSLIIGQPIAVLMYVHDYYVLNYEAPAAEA
In words: DGAT enzyme inhibition test, hDGAT1 enzyme from sf9 insect cells. The note with it: enzyme from sf9 cells overexpressing hDGAT1; read-out: hDGAT-1 (sf9) IC50. It counts as biochemical. The source says: To investigate inhibitory effect of the compounds of Examples 1-33 against DGAT enzyme activity, DGAT enzyme inhibition and DGAT2 selectivity were investigated using zymogen including:
1) hDGAT1 and hDGAT2 enzymes, derived from insect cell overexpressing human DGAT1 and DGAT2 (‘sf9’), respectively,
To be specific, for the purpose of measuring human-derived DGAT enzyme inhibitory activity, using the zymogen, including enzymes derived from insect cell overexpressing human DGAT1 and DGAT2 (‘sf9’), microsomal protein isolated from human duodenal adenocarcinoma (‘Hutu 80’), and microsomal protein isolated from rat, and according to Coleman et al., (Methods Enzymol., 98-103, 1992), and substrate including 1,2-diacylglycerol(Sigma, D0138) and [^14C]palmitoyl-CoA (Amersham, CFA583), the amount of radiation of [^14C]triacylglycerol produced after enzymatic reaction was measured.
To be more specific, to the reaction solution containing 175 mM Tris-HCl (pH 8.0), 20 μl bovine serum albumin (10 mg/ml), 100 mM magnesium chloride, 30 μM [^14C]palmitoyl CoA (0.02 μCi, Amersham) and 200 μM 1,2-dioleoylglycerol, reagent dissolved in dimethylsulfoxide (10.0 μl) was added. After introducing 100 to 200 μg isolated microsomal protein and allowing the same to react at 25° C. for 10 min, the reaction was stopped by adding 1.5 ml stop solution (2-propanol:heptane:water=80:20:2, v:v:v). To isolate the product of the reaction (i.e., [^14C]triacylglycerol), 1 ml heptane and 0.5 ml distilled water were added and then decocted. After taking 1 ml supernatant, 2 ml alkaline ethanol solution (ethanol:0.5 N sodium hydroxide:water=50:10:40, v:v:v) were added and then decocted. After taking 0.65 ml supernatant from the decoction, the amount of radiation was measured with liquid scintillation counter (LSC). The DGAT inhibitory activity was calculated with Mathematical Expression 1 below:
T denotes cpm of experimental group in which the enzymatic reaction solution was treated with the sample,
C denotes cpm of control group in which the enzymatic reaction solution was not treated with the sample, and
B denotes cpm of control group treated with the sample without zymogen.

With `COc1cccc(C(=O)NN(C(=O)/C=C/c2cn(C(=O)OC(C)(C)C)c3ccccc23)C(C)C)c1` [Example 6, (E)-tert-butyl 3-(3-(1-isopropyl-2-(3-methoxybenzoyl)hydrazinyl)-3-oxoprop-1-enyl)-1H-indole-1-carboxylate], in the experiment with HepG2 cells, the activity at 10 µM was 74.8% and the inhibition (commonly how much of the control response was suppressed) at 10 µM lay within 20 to 30%. Further, the half-inhibitory concentration (IC50) (as a rule, the concentration at which inhibition is half-maximal) on human DGAT1 is more than 100 µM.
Taken in the same sequence, the figures for `Cc1cccc(C(=O)NN(C(=O)/C=C/c2cn(C(=O)OC(C)(C)C)c3ccccc23)C(C)C)c1` [Example 47, (E)-tert-butyl 3-(3-(1-isopropyl-2-(3-methylbenzoyl)hydrazinyl)-3-oxoprop-1-enyl)-1H-indole-1-carboxylate] were 74.7%, 20 to 30% and 2.9 µM.
Taken in the same sequence, the figures for `CC(C)N(NC(=O)c1ccccc1)C(=O)/C=C/c1cn(Cc2ccccc2)c2ccccc12` [Example 26, (E)-N′-(3-(1-benzyl-1H-indol-3-yl)acryloyl)-N′-isopropylbenzohydrazide] were 59.8%, 30 to 40% and 13.6 µM.
In the same order, the values of `CC(C)N(NC(=O)c1cccc(F)c1)C(=O)/C=C/c1cn(C(=O)OC(C)(C)C)c2ccccc12` [Example 15, (E)-tert-butyl 3-(3-(2-(3-fluorobenzoyl)-1-isopropylhydrazinyl)-3-oxoprop-1-enyl)-1H-indole-1-carboxylate] are 71.2%, 20 to 30% and 20.4 µM.
For `CC(C)N(NC(=O)c1cccnc1)C(=O)/C=C/c1cn(C(=O)OC(C)(C)C)c2ccccc12` [Example 3, (E)-tert-butyl 3-(3-(1-isopropyl-2-nicotinoylhydrazinyl)-3-oxoprop-1-enyl)-1H-indole-1-carboxylate], in the experiment on HepG2 cells, the activity at 10 µM amounted to 66.8% and the inhibition at 10 µM lay in the range of 30 to 40%. Also, the IC50 at human DGAT1 was more than 100 µM.
In the same order, the values of `CC(C)N(NC(=O)c1ccccc1)C(=O)/C=C/c1cn(C(=O)OC(C)(C)C)c2ccccc12` [Example 1, (E)-tert-butyl 3-(3-(2-benzoyl-1-isopropylhydrazinyl)-3-oxoprop-1-enyl)-1H-indole-1-carboxylate] are 60.1%, 30 to 40% and 9.6 µM.
Regarding `COC(=O)COc1cccc(C(=O)NN(C(=O)/C=C/c2cn(C(=O)OC(C)(C)C)c3ccccc23)C(C)C)c1` [Example 18, (E)-tert-butyl 3-(3-(1-isopropyl-2-(3-(2-methoxy-2-oxoethoxy)benzoyl)hydrazinyl)-3-oxoprop-1-enyl)-1H-indole-1-carboxylate], the activity at 10 µM in the experiment with HepG2 cells is 102%. Moreover, the IC50 on human DGAT1 is more than 100 µM.
In the same order, the values of `CC(C)N(NC(=O)c1cccc(OCCN2CCOCC2)c1)C(=O)/C=C/c1cn(C(=O)OC(C)(C)C)c2ccccc12` [Example 8, (E)-tert-butyl 3-(3-(1-isopropyl-2-(3-(2-morpholinoethoxy)benzoyl)hydrazinyl)-3-oxoprop-1-enyl)-1H-indole-1-carboxylate] are 85.2% and more than 100 µM.
In the case of `CC(C)N(NC(=O)c1ccccn1)C(=O)/C=C/c1cn(C(=O)OC(C)(C)C)c2ccccc12` [Example 2, (E)-tert-butyl 3-(3-(1-isopropyl-2-picolinoylhydrazinyl)-3-oxoprop-1-enyl)-1H-indole-1-carboxylate], in the experiment on HepG2 cells, the activity at 10 µM stood at 64.2% and the inhibition at 10 µM was in the range of 30 to 40%. In addition, the concentration for half-maximal inhibition (IC50) on human DGAT1 is more than 100 µM.
Regarding `CC(C)(C)OC(=O)n1cc(/C=C/C(=O)NNS(=O)(=O)c2ccccc2)c2ccccc21` [Example 17, (E)-tert-butyl 3-(3-oxo-3-(2-(phenylsulfonyl)hydrazinyl)prop-1-enyl)-1H-indole-1-carboxylate], the activity at 10 µM in the experiment with HepG2 cells was determined as 81.7%. For the same compound, the IC50 on human DGAT1 was more than 100 µM.
In the same order, the values of `CC(C)N(NC(=O)c1ccccc1)C(=O)CCc1c[nH]c2ccccc12` [Example 23, N′-(3-(1H-indol-3-yl)propanoyl)-N′-isopropylbenzohydrazide] are 87.7% and 95.1 µM.

For the origin of these results see patent US8906952B2, “Indole derivative or pharmaceutically acceptable salt thereof, preparation method thereof, and pharmaceutical composition for preventing or treating metabolic diseases containing same as active ingredient” (Korea Research Institute of Bioscience and Biotechnology, priority 2011, dated 2014).
